Experimental data published in patent USRE39591E1, “6-O-substituted ketolides having antibacterial activity” (Abbott Laboratories, priority 1996, dated 2007).
≈ marks a conversion by molar mass, not a printed value.

System: up to 32 different microorganisms
Assay: in vitro antibacterial activity (MIC), agar dilution on Brain Heart Infusion (BHI) agar with Steers replicator
Type: cell-based
Conditions: unit assumed
Method: Representative compounds of the present invention were assayed in vitro for antibacterial activity as follows: Twelve petri dishes containing successive aqueous dilutions of the test compound mixed with 10 mL of sterilized Brain Heart Infusion (BHI) agar (Difco 0148-01-5) were prepared. Each plate was inoculated with 1:100 (or 1:10 for slow-growing strains, such as Micrococcus and Streptococcus) dilutions of up to 32 different microorganisms, using a Steers replicator block. The inoculated plates were incubated at 35°-37° C. for 20 to 24 hours. In addition, a control plate, using BHI agar containing no test compound, was prepared and incubated at the beginning and end of each test.
An additional plate containing a compound having known susceptibility patterns for the organisms being tested and belonging to the same antibiotic class as the test compound was also prepared and incubated as a further control, as well as to provide test-to-test comparability. Erythromycin A was used for this purpose.
After incubation, each plate was visually inspected. The minimum inhibitory concentration (MIC) was defined as the lowest concentration of drug yielding no growth, a slight haze, or sparsely isolated colonies on the inoculum spot as compared to the growth control.

[1] = Candida albicans CCH 442 (code TT)
[2] = Enterococcus faecism ATCC 8043 (code II)
[3] = Escherichia coli DC-2 (code SS)
[4] = Escherichia coli JUHL (code QQ)
[5] = Haemophilis influenzae DILL AMP R (code WW)
[6] = Micrococcus luteus ATCC 4698 (code PP)
[7] = Micrococcus luteus ATCC 9341 (code OO)
[8] = Mycobacterium smegmatis ATCC 114 (code UU)
[9] = Nocardia Asteroides ATCC9970 (code VV)
[10] = Staphylococcus aureus 1775 (code GG)
[11] = Staphylococcus aureus A5177 (code BB)
[12] = Staphylococcus aureus A-5278 (code CC)
[13] = Staphylococcus aureus ATCC 6538P (code AA)
[14] = Staphylococcus aureus CMX 553 (code FF)
[15] = Staphylococcus aureus CMX 642A (code DD)
[16] = Staphylococcus aureus NCTC10649M (code EE)
[17] = Staphylococcus epidermidis 3519 (code HH)
[18] = Streptococcus Pneumonia 5649 (code ZZA)
[19] = Streptococcus Pneumonia 5979 (code ZZ)
[20] = Streptococcus Pneumonia ATCC6303 (code XX)
[21] = Streptococcus Pneumonia GYR 1171 (code YY)
[22] = Streptococcus agalactiae CMX 508 (code KK)
[23] = Streptococcus bovis A-5169 (code JJ)
[24] = Streptococcus pyogenes 930 (code MM)
[25] = Streptococcus pyogenes EES61 (code LL)
[26] = Streptococcus pyogenes PIU 2548 (code NN)

## CC[C@H]1OC(=O)[C@H](C)C(=O)[C@H](C)[C@@H](O[C@@H]2O[C@H](C)C[C@H](N(C)C)[C@H]2O)[C@@](C)(OCC=Cc2cnc3ccccc3c2)C[C@@H](C)C(=O)[C@H](C)[C@H]2N(C)C(=O)O[C@]12C [Example 180, Compound of Formula (IX): L is CO, T is N(CH3), R is —CH2CH═CH-(3-quinolyl)]
[1]
  MIC: > 100 µg/mL
[2]
  MIC: 0.05 µg/mL
[3]
  MIC: > 100 µg/mL
[4]
  MIC: > 100 µg/mL
Escherichia coli SS (code RR)
  MIC: 0.2 µg/mL
[5]
  MIC: 4 µg/mL
[6]
  MIC: 0.1 µg/mL
[7]
  MIC: 0.02 µg/mL
[8]
  MIC: 0.2 µg/mL
[9]
  MIC: 0.1 µg/mL
[10]
  MIC: > 100 µg/mL
[11]
  MIC: 0.1 µg/mL
[12]
  MIC: > 100 µg/mL
[13]
  MIC: 0.1 µg/mL
[14]
  MIC: 0.1 µg/mL
[15]
  MIC: 0.1 µg/mL
[16]
  MIC: 0.1 µg/mL
[17]
  MIC: 0.1 µg/mL
[18]
  MIC: 0.25 µg/mL
[19]
  MIC: 128 µg/mL
[20]
  MIC: 0.03 µg/mL
[21]
  MIC: 0.03 µg/mL
[22]
  MIC: 0.05 µg/mL
[23]
  MIC: 0.02 µg/mL
[24]
  MIC: 25 µg/mL
[25]
  MIC: 0.02 µg/mL
[26]
  MIC: 0.2 µg/mL

## CCC1OC(=O)C(C)C(=O)C(C)C(OC2OC(C)CC(N(C)C)C2O)C(C)(OCC=Cc2ccc3ccccc3c2)CC(C)C(=O)C(C)C2NC(=O)OC12C (stereo not shown) [Example 186, R is —CH2CH═CH-(2-naphthyl)]
[1]
  MIC: > 100 µg/mL
[2]
  MIC: 0.05 µg/mL (≈ 0.0654 µM)
[3]
  MIC: > 100 µg/mL
[4]
  MIC: > 100 µg/mL
Escherichia coli SS (code RR)
  MIC: 0.39 µg/mL (≈ 0.51 µM)
[5]
  MIC: 16 µg/mL (≈ 20.9 µM)
[6]
  MIC: 0.1 µg/mL (≈ 0.131 µM)
[7]
  MIC: < 0.005 µg/mL
[8]
  MIC: 0.2 µg/mL (≈ 0.261 µM)
[9]
  MIC: 0.1 µg/mL (≈ 0.131 µM)
[10]
  MIC: > 100 µg/mL
[11]
  MIC: 0.01 µg/mL (≈ 0.0131 µM)
[12]
  MIC: > 100 µg/mL
[13]
  MIC: 0.1 µg/mL (≈ 0.131 µM)
[14]
  MIC: 0.01 µg/mL (≈ 0.0131 µM)
[15]
  MIC: 0.1 µg/mL (≈ 0.131 µM)
[16]
  MIC: 0.1 µg/mL (≈ 0.131 µM)
[17]
  MIC: 0.1 µg/mL (≈ 0.131 µM)
[18]
  MIC: 1 µg/mL (≈ 1.31 µM)
[19]
  MIC: > 128 µg/mL
[20]
  MIC: 0.03 µg/mL (≈ 0.0392 µM)
[21]
  MIC: 0.015 µg/mL (≈ 0.0196 µM)
[22]
  MIC: 0.01 µg/mL (≈ 0.0131 µM)
[23]
  MIC: ≤ 0.005 µg/mL
[24]
  MIC: 3.1 µg/mL (≈ 4.05 µM)
[25]
  MIC: 0.01 µg/mL (≈ 0.0131 µM)
[26]
  MIC: 0.1 µg/mL (≈ 0.131 µM)

## C#CCOC1(C)CC(C)C(=O)C(C)C2NC(=O)OC2(C)C(CC)OC(=O)C(C)C(=O)C(C)C1OC1OC(C)CC(N(C)C)C1O (stereo not shown) [Example 246, Compound of Formula (IX): L is CO, T is NH, R is —CH2CH≡C—H]
Organism code AA
  MIC: 0.78 µg/mL
Organism code BB
  MIC: 0.78 µg/mL
Organism code CC
  MIC: > 100 µg/mL
Organism code DD
  MIC: 0.78 µg/mL
Organism code EE
  MIC: 0.78 µg/mL
Organism code FF
  MIC: 0.78 µg/mL
Organism code GG
  MIC: > 100 µg/mL
Organism code HH
  MIC: 0.78 µg/mL
Organism code II
  MIC: 0.2 µg/mL
Organism code JJ
  MIC: 0.1 µg/mL
Organism code KK
  MIC: 0.2 µg/mL
Organism code LL
  MIC: 0.2 µg/mL
Organism code MM
  MIC: > 100 µg/mL
Organism code NN
  MIC: 0.39 µg/mL
Organism code OO
  MIC: 0.2 µg/mL
Organism code PP
  MIC: 0.78 µg/mL
Organism code QQ
  MIC: > 100 µg/mL
Organism code RR
  MIC: 0.78 µg/mL
Organism code SS
  MIC: > 100 µg/mL
Organism code TT
  MIC: > 100 µg/mL
Organism code UU
  MIC: 50 µg/mL
Organism code VV
  MIC: 0.78 µg/mL
Organism code WW
  MIC: 16 µg/mL
Organism code XX
  MIC: 0.25 µg/mL
Organism code YY
  MIC: 0.125 µg/mL
Organism code ZZ
  MIC: > 128 µg/mL
Organism code ZZA
  MIC: 0.5 µg/mL

## CC[C@H]1OC(=O)[C@H](C)C(=O)[C@H](C)[C@@H](O[C@@H]2O[C@H](C)C[C@H](N(C)C)[C@H]2O)[C@@](C)(OCC(=O)c2ccc(F)cc2)C[C@@H](C)C(=O)[C@H](C)[C@H]2NC(=O)O[C@@]21C [Example 240, Compound of Formula (IX): L is CO, T is NH, R is —CH2C(O)-(4-F-phenyl)]
Organism code AA
  MIC: 3.1 µg/mL
Organism code BB
  MIC: 3.1 µg/mL
Organism code CC
  MIC: > 100 µg/mL
Organism code DD
  MIC: 6.2 µg/mL
Organism code EE
  MIC: 3.1 µg/mL
Organism code FF
  MIC: 3.1 µg/mL
Organism code GG
  MIC: > 100 µg/mL
Organism code HH
  MIC: 3.1 µg/mL
Organism code II
  MIC: 0.78 µg/mL
Organism code JJ
  MIC: 0.39 µg/mL
Organism code KK
  MIC: 0.39 µg/mL
Organism code LL
  MIC: 0.39 µg/mL
Organism code MM
  MIC: > 100 µg/mL
Organism code NN
  MIC: 0.78 µg/mL
Organism code OO
  MIC: 0.39 µg/mL
Organism code PP
  MIC: 1.56 µg/mL
Organism code QQ
  MIC: > 100 µg/mL
Organism code RR
  MIC: 3.1 µg/mL
Organism code SS
  MIC: > 100 µg/mL
Organism code TT
  MIC: > 100 µg/mL
Organism code UU
  MIC: 6.2 µg/mL
Organism code VV
  MIC: 1.56 µg/mL
Organism code WW
  MIC: 32 µg/mL
Organism code XX
  MIC: 0.25 µg/mL
Organism code YY
  MIC: 0.25 µg/mL
Organism code ZZ
  MIC: > 128 µg/mL
Organism code ZZA
  MIC: 1 µg/mL

## CCC1OC(=O)C(C)C(=O)C(C)C(OC2OC(C)CC(N(C)C)C2OC(C)=O)C(C)(OCC=Cc2cnc3ccccc3c2)CC(C)C(=O)C(C)C2NC(=O)OC12C (stereo not shown) [Example 198, Compound of Formula (III): L is CO, T is NH, R^c is acetyl; R is —CH2CH═CH-(3-quinolyl)]
[1]
  MIC: > 100 µg/mL
[2]
  MIC: 0.02 µg/mL
[3]
  MIC: 50 µg/mL
[4]
  MIC: 50 µg/mL
Escherichia coli SS (code RR)
  MIC: 0.1 µg/mL
[6]
  MIC: 0.1 µg/mL
[7]
  MIC: ≤ 0.005 µg/mL
[8]
  MIC: 0.39 µg/mL
[9]
  MIC: 0.02 µg/mL
[10]
  MIC: > 100 µg/mL
[11]
  MIC: 0.05 µg/mL
[12]
  MIC: > 100 µg/mL
[13]
  MIC: 0.05 µg/mL
[14]
  MIC: 0.02 µg/mL
[15]
  MIC: 0.05 µg/mL
[16]
  MIC: 0.05 µg/mL
[17]
  MIC: 0.1 µg/mL
[22]
  MIC: ≤ 0.005 µg/mL
[23]
  MIC: ≤ 0.005 µg/mL
[24]
  MIC: 0.39 µg/mL
[25]
  MIC: ≤ 0.005 µg/mL
[26]
  MIC: 0.1 µg/mL

## CC[C@H]1OC(=O)[C@H](C)C(=O)[C@H](C)[C@@H](O[C@@H]2O[C@H](C)C[C@H](N(C)C)[C@H]2O)[C@@](C)(OCC=Cc2ccc(OC)cc2)C[C@@H](C)C(=O)[C@H](C)[C@@H](O)[C@]1(C)O [Example 16, Compound of Formula (VIII): X is O, R is —CH2CH═CH-(4-methoxyphenyl)]
[1]
  MIC: > 100 µg/mL
[2]
  MIC: 0.78 µg/mL
[3]
  MIC: > 100 µg/mL
[4]
  MIC: > 100 µg/mL
Escherichia coli SS (code RR)
  MIC: 6.2 µg/mL
[5]
  MIC: 128 µg/mL
[6]
  MIC: 0.78 µg/mL
[7]
  MIC: 0.2 µg/mL
[8]
  MIC: 3.2 µg/mL
[9]
  MIC: 1.56 µg/mL
[10]
  MIC: > 100 µg/mL
[11]
  MIC: 1.56 µg/mL
[12]
  MIC: > 100 µg/mL
[13]
  MIC: 1.56 µg/mL
[14]
  MIC: 1.56 µg/mL
[15]
  MIC: 1.56 µg/mL
[16]
  MIC: 1.56 µg/mL
[17]
  MIC: 1.56 µg/mL
[18]
  MIC: 2 µg/mL
[19]
  MIC: 128 µg/mL
[20]
  MIC: 1 µg/mL
[21]
  MIC: 0.25 µg/mL
[22]
  MIC: 0.39 µg/mL
[23]
  MIC: 0.2 µg/mL
[24]
  MIC: > 100 µg/mL
[25]
  MIC: 0.39 µg/mL
[26]
  MIC: 0.78 µg/mL
